According to paper PMC8983599 (Cancer Discovery, 2022):
Where two headings read alike, the source gives them in different places.

Columns and labels:
MLL/AF9 AML cells = format: in vivo, mouse
[1] = tested on: Kyn/Trp ratio (indicator of IDO1 activity); assay: Serum Kyn and Trp levels; format: in vivo, mouse
[2] = Systemic toxicity of epacadostat diet in WT mice; format: in vivo, mouse; conditions: epacadostat ad libitum diet 0.8 g/kg
[3] = tested on: patient-derived AML cells; assay: Patient-derived AML xenograft; format: in vivo, NSGS mice; conditions: epacadostat 300 mg/kg daily gavage
[4] = tested on: patient-derived AML cells; assay: PDX in NSG mice, combination therapy; format: in vivo; conditions: day 22 after initiating therapy
5-HT1B receptor (HTR1B) = 5-HT1B receptor (HTR1B) (Homo sapiens, UniProt P28222); assay: GloSensor Gi/o-mediated cAMP inhibition assay in transfected HEK293T cells; format: cell-based
5-HT1B receptor (HTR1B), sequence (P28222 whole entry): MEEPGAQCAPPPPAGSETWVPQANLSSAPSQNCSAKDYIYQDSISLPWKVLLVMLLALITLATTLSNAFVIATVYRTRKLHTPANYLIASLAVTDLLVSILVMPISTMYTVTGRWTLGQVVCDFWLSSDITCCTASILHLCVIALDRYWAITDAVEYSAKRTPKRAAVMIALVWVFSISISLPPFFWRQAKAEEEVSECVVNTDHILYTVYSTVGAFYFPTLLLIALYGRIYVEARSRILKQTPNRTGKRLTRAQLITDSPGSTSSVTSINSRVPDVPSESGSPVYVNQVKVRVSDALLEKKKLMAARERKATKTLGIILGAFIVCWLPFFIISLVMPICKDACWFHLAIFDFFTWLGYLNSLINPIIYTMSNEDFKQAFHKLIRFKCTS

[5] = tested on: Saa3 expression in mouse primary osteoblasts; assay: Saa3 mRNA in primary differentiated mouse calvaria osteoblasts; format: cell-based; conditions: 25 nmol/L, 24 hours
[6] = tested on: leukemic blasts (hCD45+ hCD33+); assay: Kyn injection in low AML burden PDX mice; format: in vivo, NSGS mice; conditions: Kyn 20mg/kg for 1 week
murine HTR1B receptor = murine HTR1B receptor (Mus musculus, UniProt P28334); assay: [3H]-Kyn binding competition, Htr1b-overexpressing HEK293T membranes; conditions: SB9 at ∼90 μmol/L, equal to the concentration administered in vivo
murine HTR1B receptor, sequence (P28334 whole entry): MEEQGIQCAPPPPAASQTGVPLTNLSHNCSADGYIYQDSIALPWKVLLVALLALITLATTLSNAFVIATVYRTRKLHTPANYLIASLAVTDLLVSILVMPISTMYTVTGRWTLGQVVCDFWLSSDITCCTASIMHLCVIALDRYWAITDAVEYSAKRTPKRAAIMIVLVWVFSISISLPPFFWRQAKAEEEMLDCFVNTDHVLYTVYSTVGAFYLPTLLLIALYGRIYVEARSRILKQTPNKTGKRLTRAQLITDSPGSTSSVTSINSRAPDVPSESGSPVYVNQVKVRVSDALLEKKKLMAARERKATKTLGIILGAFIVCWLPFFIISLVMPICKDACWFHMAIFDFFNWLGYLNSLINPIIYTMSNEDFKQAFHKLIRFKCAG

[7] = tested on: Cyclins D1, D2, and E1 (targets of serotonin-HTR1B signaling); assay: Bone; format: in vivo, mouse; conditions: SB9-treated mice
mouse HTR1B = mouse HTR1B (Mus musculus, UniProt P28334); conditions: Fig. S1M
mouse HTR1B, sequence (P28334 whole entry): as above

Ido1 = assay: CRISPR/Cas9-mediated Ido1 targeting of primary murine MLL/AF9 cells; format: cell-based, mouse; conditions: Ido1 exon 3
[8] = tested on: IDO1 expression in OCI-AML3 cells; assay: IDO1 mRNA in human AML/MDS cell lines exposed to recombinant proteins; format: cell-based
[9] = tested on: Ido1 expression in WEHI-3B cells; assay: Ido1 mRNA in WEHI-3B cells exposed to recombinant SAA; format: cell-based, mouse; conditions: exposed overnight
THP-1 and OCI-AML3 cells = assay: Proliferation of human AML cell lines exposed to SAA1; format: cell-based; conditions: SAA1 1 μg/mL, 24–72 hours, versus vehicle
[10] = tested on: lineage-depleted AML and MDS BM-MNCs; format: cell-based, human; conditions: SAA1 5 μg/mL, 24 hours
[11] = tested on: total human BM cells isolated from PDX mice; assay: Ex vivo human BM cells isolated from PDX mice; format: cell-based; conditions: SAA1 1 μg/mL, 24 hours
[12] = tested on: leukemic blasts (hCD45+CD33+); format: in vivo, NSGS mice
[13] = tested on: AHR target genes (CYP1A1, CYP1A2); assay: AHR target gene mRNA in human AML and MDS cells exposed to SAA1; format: cell-based; conditions: SAA1 1µg/ml o/n
WEHI-3B cells = assay: Proliferation of mouse AML cell line exposed to SAA3; format: cell-based; conditions: SAA3 1 μg/mL, 24–72 hours, versus vehicle
[14] = SAA1 i.v., 2- and 8-day treatments

Molecule: NS(=O)(=O)NCCNc1nonc1C(=NO)Nc1ccc(F)c(Br)c1 [epacadostat]
- leukemia progression (MLL/AF9 AML cells; epacadostat diet 0.8 g/kg): tendency toward a slower leukemia progression
- survival (MLL/AF9 AML cells; epacadostat diet 0.8 g/kg): slight—yet significant—increase in survival
- AML burden (MLL/AF9 AML cells; epacadostat diet 1.6 g/kg): significant delay in AML burden
- survival (MLL/AF9 AML cells; epacadostat diet 1.6 g/kg, compared with the lower dose): significantly prolonged survival
- reduction in serum Kyn levels ([1]; MLL/AF9 mice, epacadostat diet 1.6 g/kg): 35%
- reduction in basal (no leukemia) circulating Kyn/Trp levels ([1]; WT mice, epacadostat ad libitum diet 0.8 g/kg): 54%
- systemic Kyn/Trp levels in MLL/AF9 leukemic mice ([1]; epacadostat diet 0.8 g/kg): did not reduce the 1.5-fold increase in systemic Kyn/Trp levels
- systemic toxicity [2]: did not show any obvious systemic toxicity
- G0–G1 and G2–M populations of leukemic blasts [3]: remained unchanged
- leukemic blast apoptosis [3]: increased leukemic blast apoptosis
- proliferation of leukemic blasts (hCD45+CD33+), in vivo cell cycle [3]: less proliferative
- reduction in Kyn/Trp levels in blood ([3]; 12-day regimen): ~20%
- reduction in AML BM burden ([3]; versus vehicle): ~20%
- effect on leukemic burden in SP relative to BM [4]: more pronounced effect in the SP

Molecule: Nc1ccn([C@@H]2O[C@H](CO)[C@@H](O)[C@@H]2O)c(=O)n1 [Ara-C, 1-β-D-arabinofuranosylcytosine]
- effect on leukemic burden in SP relative to BM [4]: more sustained in the SP than in BM

Molecule: Nc1ccccc1C(=O)CC(N)C(=O)O (stereo not drawn) [Kyn, kynurenine]
- mode of action on Gi/o-mediated cAMP production through HTR1B (5-HT1B receptor (HTR1B)): partial agonist
- EC50 (5-HT1B receptor (HTR1B); EC50 (nmol/L), cAMP Gi agonist, human HTR1B): ~772 nM
- Saa3 expression in Htr1b−/− primary osteoblasts [5]: failed to upregulate Saa3 expression
- Saa3 expression in mouse osteoblasts (Htr1b+/+) [5]: potently upregulated Saa3 expression
- AML burden in BM and SP [6]: AML burden increased in BM and SP
- proliferative capacity of the leukemic blasts [6]: increases
- serum SAA3 ([6]; low AML burden PDX mice): increases serum SAA3

Molecule: Cc1nc(-c2ccc(-c3ccc(C(=O)N4CCc5cc6c(cc54)C4(CCN(C)CC4)CO6)cc3)c(C)c2)no1 [SB224289, 1′-methyl-5-[[2′-methyl-4“-(5-methyl-1,2,4-oxadiazol-3-yl)biphenyl-4-yl]carbonyl]-2,3,6,7-tetrahydro-spiro[furo[2,3-f]indole-3,4-”piperidine]]
- effect on Kyn binding to the murine HTR1B receptor (murine HTR1B receptor): no effect
- protection of MLL/AF9-injected mice (MLL/AF9 AML cells; SB9 5 mg/kg i.p. daily from 1 week after leukemia injection): only partially protected
- survival (MLL/AF9 AML cells; SB9 5 mg/kg i.p. daily versus vehicle): significant increase in survival
- bone expression of Cyclins D1, D2, and E1 [7]: upregulated
- 5-HT binding to HTR1B at the administered dose (mouse HTR1B): effective in abolishing 5-HT binding to HTR1B

Molecule: NCCc1c[nH]c2ccc(O)cc12 [5-HT, 5-hydroxytryptamine, reference compound]
- Saa3 expression in mouse osteoblasts (Htr1b+/+) [5]: had no effect

Molecule: sgRNA#196: chemically modified mouse sgRNA targeting Ido1 exon 3: CUGCCCACACUGAGCACGGA (chemically modified, pattern not given here)
- deletion efficiency (Ido1): ~40%

B1: SAA1: recombinant human acute-phase protein serum amyloid A1 (PeproTech) (protein, UniProt P0DJI8 19-122, looked up)
Serum amyloid A-1 protein: RSFFSFLGEAFDGARDMWRAYSDMREANYIGSDKYFHARGNYDAAKRGPGGAWAAEVITDARENIQRFFGHGAEDSLADQAANEWGRSGKDPNHFRPAGLPEKY
- IDO1 upregulation in other cell lines ([8]; Fig. S4O, exposed o/n to SAA1): observed across several human AML cell lines as well as the MDS-L cell line
- IDO1 expression in OCI-AML3 cells ([8]; overnight, 50 ng/mL recombinant protein): the only osteoblast-secreted molecule able to upregulate IDO1 expression
- Ido1 expression in WEHI-3B cells [9]: able to upregulate Ido1 expression in WEHI-3B cells with a magnitude similar to SAA3
- proliferation of human AML cell lines (THP-1 and OCI-AML3 cells): increased proliferation
- IDO1 mRNA levels in patient-derived BM-MNCs [10]: increased
- proliferation of lineage-depleted AML and MDS BM-MNCs from patient aspirates [10]: promoted proliferation
- IDO1 expression in PDX-isolated human cells [11]: upregulated only in response to SAA1 in the PDX AML-isolated human cells
- proliferation of human cells from CD34+ healthy injected mice [11]: unresponsive
- proliferation of patient-derived cells from AML-injected mice ([11]; versus vehicle): high proliferative activity
- proliferative rate of leukemic blasts (EdU+ cells, S-phase) ([12]; SAA1 100 μg/kg i.v., 2- and 8-day treatments): maintained and prominent increase in the proliferative rate of leukemic blasts
- G0–G1 cells of leukemic blasts [12, 14]: decrease
- G2–M phase of leukemic blasts [12, 14]: unvarying
- increase in AML burden in the BM ([12]; SAA1 i.v., completion of the 8-day treatment): 1.5 fold
- AHR target gene expression in human AML and MDS cell lines [13]: upregulated most of the main AHR target genes

B2: SAA3: recombinant mouse SAA3 (Cusabio), murine ortholog of SAA1 (protein, UniProt P04918 19-122, looked up)
Serum amyloid A-3 protein: QRWVQFMKEAGQGSRDMWRAYSDMKKANWKNSDKYFHARGNYDAARRGPGGAWAAKVISDAREAVQKFTGHGAEDSRADQFANEWGRSGKDPNHFRPAGLPKRY
- Ido1 expression in WEHI-3B cells [9]: upregulated Ido1 expression
- proliferation of mouse AML cell line (WEHI-3B cells): increased proliferation
